{"source": "patent US6893630B2", "about": "“Anti-microbial antiperspirant products” (Unilever Home & Personal Care USA, division of Conopco, Inc., priority 2000, dated 2005)", "key": {"[1]": {"test_system": "Staphylococcus epidermidis", "assay": "Anti-microbial performance of chelators: growth inhibition in semi-synthetic medium by optical density", "assay_type": "cell-based", "details": "for \"micro-molar active\" criterion (significant inhibition of growth, at least 30%, at 3×10^−6 mol.dm^−3 or less): S. epidermidis; for Inhibition of growth (%): chelator 3×10^−6 mol.dm^−3, 16 hours at 37° C., optical density at 600 nm vs control medium", "experimental": "An axillary isolate of Staphylococcus epidermidis was grown overnight in 100 ml of tryptone soy broth (TSB, Oxoid Ltd). 10 ml of this culture was taken and subjected to centrifugation. The separated cells were re-suspended in 10 ml of phosphate buffered saline and the centrifugation procedure repeated. The washed cells were re-suspended in 10 ml of phosphate buffered saline to give the inoculum. 100 μl of the inoculum was added to 100 ml of semi-synthetic medium (SSM) containing (NH4)2SO4 (0.066 g), MgSO4.7H2O (0.012 g), KCl (0.1 g), KH2PO4 (0.27 g), Na2HPO4 (1.43 g), thiamin (0.1 mg), biotin (0.05 mg), Peptone P (0.05 g), and glucose (2.0 mmole) which had been previously sterilised by autoclaving at 121° C. for 20 minutes. The pH of the SSM was adjusted to 6.7 with HCl after sterilisation, prior to addition of the inoculum. This control medium was utilised in all of the in vitro inhibition studies. The chelator-containing test media were prepared in a similar manner, the chelator being introduced at a concentration of 3×10^−6 mol.dm^−3 before the pH adjustment with HCl.\n100 μl of the S. epidermidis inoculum was introduced into the control medium and into test media containing the chelators indicated in Table 2. The cultures were inoculated at 37° C. (with agitation at 200 rpm) for 16 hours, and the optical density of the cultures measured at 600 nm to determine the extent of bacterial growth. By comparison of the optical density of the culture in the presence of chelating agent, to that of the control, the percentage inhibition of growth was established. (Optical density measurements were made on 1 in 4 dilutions of the cultures with 0.9% (w/v) saline, using 1 cm path length cuvettes, on a Pharmacia Biotech Ultrospec 200 Spectrophotometer.)"}, "[2]": {"test_system": "relevant micro-organism", "details": "cited from earlier work"}}, "note": "“Also recorded” adds a separate entry of the source. Where two headings read alike, the source gives them in different places."}
{"compound": "O=C(O)CN(CC(=O)O)[C@@H]1CCCC[C@H]1N(CC(=O)O)CC(=O)O", "note": "(relative stereo) [CDTA, trans-1,2-diaminocyclohexane-N,N,N′,N′-tetraacetic acid]", "values": [{"measurement": "\"micro-molar active\" criterion (significant inhibition of growth, at least 30%, at 3×10^−6 mol.dm^−3 or less)", "setting": "[1]", "result": "exclude; also recorded: fail this criterion"}, {"measurement": "Inhibition of growth (%)", "setting": "[1]", "result": 12.3, "unit": "%"}]}
{"compound": "O=C(O)CN(CCN(CC(=O)O)CC(=O)O)CCN(CC(=O)O)CC(=O)O", "note": "[DTPA, diethylenetriaminepentaacetic acid]", "values": [{"measurement": "\"micro-molar active\" criterion (significant inhibition of growth, at least 30%, at 3×10^−6 mol.dm^−3 or less)", "setting": "[1]", "result": "capable of achieving significant inhibition; also recorded: meet the criterion"}, {"measurement": "Inhibition of growth (%)", "setting": "[1]", "result": 56.5, "unit": "%"}]}
{"compound": "O=C(O)CN(CCN(CC(=O)O)CC(=O)O)CC(=O)O", "note": "[EDTA, ethylenediaminetetraacetic acid]", "values": [{"measurement": "\"micro-molar active\" criterion (significant inhibition of growth, at least 30%, at 3×10^−6 mol.dm^−3 or less)", "setting": "[1]", "result": "exclude; also recorded: fail this criterion"}, {"measurement": "Inhibition of growth (%)", "setting": "[1]", "result": 0, "unit": "%"}]}
{"compound": "O=C(O)CN(CCN(CCN(CC(=O)O)CC(=O)O)CC(=O)O)CCN(CC(=O)O)CC(=O)O", "note": "[TTHA, triethylenetetraaminehexaacetic acid]", "values": [{"measurement": "\"micro-molar active\" criterion (significant inhibition of growth, at least 30%, at 3×10^−6 mol.dm^−3 or less)", "setting": "[1]", "result": "capable of achieving significant inhibition; also recorded: meet the criterion"}, {"measurement": "Inhibition of growth (%)", "setting": "[1]", "result": 56.3, "unit": "%"}]}
{"compound": "CCO", "note": "[ethanol]", "values": [{"measurement": "MIC", "setting": "[2]; stated by contrast, no source given", "result": "greater than 1 mg.ml^−1"}]}
{"compound": "CC(C)=CCCC(C)=CCCC(C)=CCO", "note": "[farnesol, 3,7,11-trimethyldodeca-2,6,10-trienol]", "values": [{"measurement": "MIC", "setting": "[2]; literature values", "result": "ca. 25 μg.ml^−1"}]}
{"compound": "Oc1cc(Cl)ccc1Oc1ccc(Cl)cc1Cl", "note": "[triclosan, 2′,4,4′-trichloro,2-hydroxy-diphenyl ether]", "values": [{"measurement": "MIC", "setting": "[2]; literature values", "result": "0.01 to 10", "unit": "µg/mL"}]}
